Test results taken from patent US9320750B2, “Compositions and methods of treatment of drug resistant cancers” (priority 2012, dated 2016).
Entries after “also recorded” stand apart in the source; their conditions may differ. Like-named read-outs stand apart in the source and are kept apart here.

Tests used:
caspase-8 [1] = assay: Caspase-8 cleavage by western blot in TNBC cell lines; type: cell-based, human; conditions: TNBC cell lines in which ERL→DOX was synergistic; 8 hr after DOX
Text: (§1) Cells were lysed in a manner that would allow samples to be used for both western blot analysis and reverse-phase protein microarray. Data generated by quantitative western blot were preprocessed prior to use in computational modeling. Raw signals for each protein target of interest were quantified and background subtracted using the Li-COR Odyssey software and divided by P-actin signals to normalize for loading differences, and then each normalized signal was divided by a reference sample contained on each gel for gel-to-gel normalization.

NCI-H358 = assay: Apoptosis, cleaved caspase-3/cleaved PARP flow cytometry; conditions: time-staggered inhibition of EGFR using erlotinib (ERL→DOX)
[2] = tested on: ten triple-negative cell lines; assay: Apoptosis across panel of triple-negative cell lines; type: cell-based, human; conditions: time-staggered ERL→DOX
Method: (§2) 1×10^6 cells were seeded in a 10 cm dish 24 hr prior to the experiment. […]. Following the treatment time course, cells were washed in PBS, trypsinized, and fixed in 4% paraformaldehyde (PFA) in PBS for 15 min at room temperature (RT), then resuspended in ice cold methanol and incubated overnight at −20° C. Cells were then washed twice in PBS+0.1% Tween and stained with antibodies directed against cleaved forms of caspase-3 and PARP (BD PharMingen). Secondary antibodies conjugated to Alexa dyes (488 and 647) were used for visualization in a BD FacsCaliber flow cytometer (Molecular Probes). Data reported are always percent cleaved-caspase-3/cleaved-PARP double positive cells.
(§3) Following the treatment time course, cells were washed, trypsinized, fixed in 4% paraformaldehyde for 15 min at room temperature, resuspended in ice-cold methanol, and incubated overnight at −20° C. Cells were then washed twice in PBS-Tween and stained with antibodies against cleaved caspase-3 and poly(ADP-ribose) polymerase (PARP). Secondary Alexa-conjugated anti-bodies were used for visualization in a BD FacsCaliber flow cytometer.

BT-20 cells [3] = assay: RNA expression analysis by microarray; type: cell-based, human; conditions: for differentially expressed genes (DEGs): erlotinib alone
Text: (§4) RNA was extracted from cells using the RNAeasy Kit (QIAGEN). Affymetrix Human U133 Plus 2.0 microarrays were hybridized, labeled, and processed on a fee-for-service basis through the MIT BioMicro Center. Microarray data were obtained from three independent biological replicates per time point and analyzed using linear model for microarray (LIMMA).
(§5) RNA was extracted from cells using the RNAeasy Kit (QIAGEN). Affymetrix Human U133 Plus 2.0 microarrays were hybridized, labeled and processed on a fee-for-service basis through the BioMicro Center at MIT. Microarray data were obtained from 3 independent biological replicates per time point. Detailed analysis of microarray data was performed with help from the Bioinformatics Core Facility at the Koch Institute at MIT. Expression data can be found in the GEO repository under the accession number GSE30516.

MCF7 cells [4] = assay: RNA expression analysis by microarray; type: cell-based, human; conditions: erlotinib alone, 24 hr
Text: as §4, §5

MDA-MB-453 cells [5] = assay: RNA expression analysis by microarray; type: cell-based, human; conditions: erlotinib alone, 24 hr
Text: as §4, §5

NCI-H1650 cells = assay: Apoptosis, cleaved caspase-3/cleaved PARP flow cytometry; conditions: time-staggered inhibition of EGFR using erlotinib (ERL→DOX)
BT-20 cells [6] = assay: Soft agar growth assay; type: cell-based, human; conditions: sustained EGFR inhibition with erlotinib
Method: Soft agar growth assays were performed as described by Sapi, E., Flick, M. B., Rodov, S, and Kacinski, B. M. (1998). Ets-2 Transdominant Mutant Abolishes Anchorage-Independent Growth and Macrophage Colony Stimulating Factor-Stimulated Invasion by BT20 Breast Carcinoma Cells. Cancer Res. 58, 1027-1033.

BT-20 cells [7] = tested on: BT-20 cells
Method: (§6) 1×10^6 cells were seeded in a 10 cm dish 24 hr prior to the experiment. […] Following the treatment time course, cells were washed in PBS, trypsinized, and fixed in 4% paraformaldehyde (PFA) in PBS for 15 min at room temperature (RT), then resuspended in ice cold methanol and incubated overnight at −20° C. Cells were then washed twice in PBS+0.1% Tween and stained with antibodies directed against cleaved forms of caspase-3 and PARP (BD PharMingen). […] Data reported are always percent cleaved-caspase-3/cleaved-PARP double positive cells.
as §3

MCF7 cells [8] = assay: Apoptosis, cleaved caspase-3/cleaved PARP flow cytometry
caspase-8 [9] = assay: Caspase-8 cleavage by western blot in lung cancer cell lines; type: cell-based, human; conditions: ERL→DOX in NCI-H1650, A549 and NCI-H358
Text: as §1

Hs578Bst = assay: Apoptosis, cleaved caspase-3/cleaved PARP flow cytometry; type: cell-based, human; conditions: erlotinib-doxorubicin combinations; normal peripheral breast tissue line
Method: as §6, §3

A549 = assay: as above; conditions: time-staggered inhibition of EGFR using erlotinib (ERL→DOX)
MDA-MB-453 cells [10] = assay: as above; type: cell-based, human
Method: as §2, §3

BT-474 cells = assay: as above; type: cell-based, human
Method: as §2, §3

BT-20 xenograft tumors = assay: Xenograft tumor model
caspase-8 [11] = assay: Caspase-8 cleavage by western blot in HER2-driven cells; type: cell-based, human; conditions: lapatinib/doxorubicin combinations in HER2-driven cells (MDA-MB-453, BT-474)
Text: as §1

[12] = single dose doxorubicin alone, 4 mg/kg intraperitoneally
[13] = all temporal combinations of lapatinib and doxorubicin, HER2-overexpressing cells
[14] = lapatinib pretreatment (LAP→DOX)

`C#Cc1cccc(Nc2ncnc3cc(OCCOC)c(OCCOC)cc23)c1` [erlotinib] was tested, and the caspase-8 cleavage (caspase-8 [1]) was “caspase-8 cleavage following sequential administration, but not other drug treatments”, the “sensitization to killing by doxorubicin” value (NCI-H358) was “dramatic sensitization” and the “cell lines with enhanced sensitivity to doxorubicin” value ([2]; sustained EGFR inhibition) was “nine of ten”. The “cell lines with synergistic effect” value ([2]; Chou-Talalay combination index) was “four of the ten”, the “breast cancer subtype gene expression pattern” value (BT-20 cells [3]; chronic erlotinib treatment) was “progressive time-dependent loss of basal-like gene expression with concomitant gain in luminal A-like gene expression” and the “differentially expressed genes (DEGs)” value (BT-20 cells [3]; 30 min) was “few”. The “differentially expressed genes (DEGs)” value (BT-20 cells [3]; 6 hr) was “more than 1,200”, the “differentially expressed genes (DEGs)” value (BT-20 cells [3]; 24 hr) was “more than 2,000” and the “GeneGO cellular networks with significant changes (of 34)” value (BT-20 cells [3]; long-term erlotinib treatment) was 16. For the same compound, the GSEA oncogenic signatures (BT-20 cells [3]; sustained erlotinib exposure) was “loss of the Ras and MYC oncogenic signatures”, the genes significantly altered (MCF7 cells [4]) was “one” and the “differentially expressed genes (DEGs)” value (MDA-MB-453 cells [5]) was 235. The “sensitization to killing by doxorubicin” value (NCI-H1650 cells) was “dramatic sensitization”, the “soft agar colony formation” value (BT-20 cells [6]) was “potently inhibited” and the “increase in cell killing (apoptotic response)” value (BT-20 cells [7]) was at most 500%. For the same compound, the “interaction with doxorubicin in killing (Chou-Talalay method)” value (BT-20 cells [7]) was “synergistic”, the “killing in combination with camptothecin” value (BT-20 cells [7]) was “Synergistic killing” and the “killing in combination with doxorubicin” value (BT-20 cells [7]) was “Synergistic killing”. The “effect on apoptosis of adding erlotinib to EGFR knockdown cells” value (BT-20 cells [7]; EGFR siRNA knockdown, delayed doxorubicin) was “no additional effect”, the cell death (BT-20 cells [7]; erlotinib alone) was “did not cause death” and the apoptotic stimulus (BT-20 cells [7]; erlotinib alone or added at the same time as or shortly before doxorubicin, 10 μM, TNBC (BT-20) cells) was “not a potent apoptotic stimulus”. The “interaction with doxorubicin (Chou-Talalay method)” value (MCF7 cells [8]; all temporal erlotinib-doxorubicin combinations) was “merely additive”, the cell death (MCF7 cells [8]; erlotinib alone) was “did not cause death” and the caspase-8 cleavage (caspase-8 [9]) was “associated with caspase-8 cleavage”. The “effect of order and timing of drug addition on apoptosis” value (Hs578Bst) was “little effect”, the “sensitization to killing by doxorubicin” value (A549) was “dramatic sensitization” and the “effect on doxorubicin sensitivity” value (MDA-MB-453 cells [10]; chronic EGFR inhibition, erlotinib pretreatment before doxorubicin) was “antagonized doxorubicin sensitivity; also recorded: desensitized”. The cell death (MDA-MB-453 cells [10]; erlotinib alone) was “did not cause death”, the “effect on sensitivity to doxorubicin” value (BT-474 cells; pretreatment with erlotinib) was “desensitization” and the tumor regrowth (BT-20 xenograft tumors; erlotinib 25 mg/kg given 8 hr prior to doxorubicin 4 mg/kg (E→D), i.p., 14 day monitoring) was “failed to regrow”. For the same compound, the “initial reduction in tumor size versus doxorubicin alone” value (BT-20 xenograft tumors; erlotinib 25 mg/kg given at the same time as doxorubicin 4 mg/kg (D/E), i.p.) was “initial reduction in tumor size was greater”.
In the case of `COc1cccc2c1C(=O)c1c(O)c3c(c(O)c1C2=O)C[C@@](O)(C(=O)CO)C[C@@H]3O[C@H]1C[C@H](N)[C@H](O)[C@H](C)O1` [doxorubicin], the “time at which residual tumors reached pretreatment volume” value (BT-20 xenograft tumors; [12]) is reported as 14 days and the “tumor volume over the first 3 days after treatment” value (BT-20 xenograft tumors; [12]) is reported as “marked reduction in tumor volume”.
For `CS(=O)(=O)CCNCc1ccc(-c2ccc3ncnc(Nc4ccc(OCc5cccc(F)c5)c(Cl)c4)c3c2)o1` [lapatinib], the caspase-8 cleavage (caspase-8 [11]) was “only observed following LAP→DOX treatment”, the “killing in combination with camptothecin” value (BT-20 cells [7]; time-staggered pretreatment with EGFR inhibitor, then camptothecin) was “Synergistic killing” and the “killing in combination with doxorubicin” value (BT-20 cells [7]; time-staggered pretreatment with EGFR inhibitor, then doxorubicin) was “Synergistic killing”. For the same compound, the interaction with doxorubicin (MDA-MB-453 cells [10]; [13]) was “synergistic”, the “effect on sensitivity to doxorubicin” value (MDA-MB-453 cells [10]; [14]) was “enhanced sensitivity to doxorubicin” and the interaction with doxorubicin (BT-474 cells; [13]) was “synergistic”. For the same compound, the “effect on sensitivity to doxorubicin” value (BT-474 cells; [14]) was “enhanced sensitivity to doxorubicin”.
